# Test results taken from ChEMBL document CHEMBL1201862, “PubChem BioAssay data set” (2004).
# Active and inactive are the calls of the source.
# Assays:
# [1] = target: T1, Fructose-bisphosphate aldolase (Mycobacterium tuberculosis, UniProt P9WQA3); assay: Fluorescence-based biochemical high throughput dose response assay for inhibitors of the fructose-bisphosphate aldolase (FBA) of M. tuberculosis.; format: functional
# T1 sequence (P9WQA3 whole entry): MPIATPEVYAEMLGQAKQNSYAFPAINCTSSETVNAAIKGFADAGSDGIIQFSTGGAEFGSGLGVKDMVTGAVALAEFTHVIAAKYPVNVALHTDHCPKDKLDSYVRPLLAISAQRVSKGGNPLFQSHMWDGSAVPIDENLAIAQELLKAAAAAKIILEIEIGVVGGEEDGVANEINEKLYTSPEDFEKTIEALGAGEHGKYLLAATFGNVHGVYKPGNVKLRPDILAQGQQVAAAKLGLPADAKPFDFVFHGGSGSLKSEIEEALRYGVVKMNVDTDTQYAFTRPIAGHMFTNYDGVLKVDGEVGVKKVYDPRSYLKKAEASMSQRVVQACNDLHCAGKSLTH
# cells [2] = format: functional, cell-based
# [3] = target: T2, Nuclear receptor subfamily 0 group B member 1 (Homo sapiens, UniProt P51843); format: functional, cell-based;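 note: HEK293T cells transfected with SF-1 and DAX-1 plus StAR promoter luciferase reporter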
# T2 sequence (P51843 whole entry): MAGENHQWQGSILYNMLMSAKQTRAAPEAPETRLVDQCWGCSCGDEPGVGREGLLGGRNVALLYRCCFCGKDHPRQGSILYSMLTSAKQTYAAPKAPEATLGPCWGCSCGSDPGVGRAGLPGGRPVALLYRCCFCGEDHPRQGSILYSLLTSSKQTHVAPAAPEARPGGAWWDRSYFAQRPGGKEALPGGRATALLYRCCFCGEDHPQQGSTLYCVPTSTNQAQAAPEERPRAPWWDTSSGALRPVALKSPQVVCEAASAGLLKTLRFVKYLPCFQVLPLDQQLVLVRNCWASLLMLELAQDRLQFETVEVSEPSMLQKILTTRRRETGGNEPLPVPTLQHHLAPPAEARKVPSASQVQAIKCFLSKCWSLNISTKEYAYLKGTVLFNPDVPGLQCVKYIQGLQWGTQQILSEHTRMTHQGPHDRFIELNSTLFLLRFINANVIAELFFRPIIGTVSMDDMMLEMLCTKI
# Vero = assay: viability loss in Vero cells – cell-based, plate reader, cherry-pick samples, cytotoxicity control, dose response (AID 687020); format: functional; conditions: Chlorocebus sabaeus
# [4] = target: T3, High affinity choline transporter 1 (Homo sapiens, UniProt Q9GZV3); assay: human choline transporter blockers, potency – cell-based, 5-point CRC, membrane potential dye, dose response (AID 504840); format: functional
# T3 sequence (Q9GZV3 whole entry): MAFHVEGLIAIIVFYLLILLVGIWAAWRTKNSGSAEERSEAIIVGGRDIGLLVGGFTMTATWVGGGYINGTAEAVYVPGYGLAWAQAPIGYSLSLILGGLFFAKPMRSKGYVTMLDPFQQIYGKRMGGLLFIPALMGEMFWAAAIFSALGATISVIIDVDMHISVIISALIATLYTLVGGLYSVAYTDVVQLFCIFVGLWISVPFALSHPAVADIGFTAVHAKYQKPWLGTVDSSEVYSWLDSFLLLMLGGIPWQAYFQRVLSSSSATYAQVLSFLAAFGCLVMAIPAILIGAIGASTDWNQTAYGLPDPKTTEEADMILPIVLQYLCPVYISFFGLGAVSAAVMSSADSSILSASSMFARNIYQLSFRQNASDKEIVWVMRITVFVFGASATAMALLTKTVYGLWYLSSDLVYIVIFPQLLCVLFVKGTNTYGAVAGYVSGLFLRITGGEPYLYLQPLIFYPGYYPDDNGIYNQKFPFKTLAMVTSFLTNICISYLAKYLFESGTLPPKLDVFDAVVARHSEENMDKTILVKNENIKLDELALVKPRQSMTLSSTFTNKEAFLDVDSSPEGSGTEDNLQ
# [5] = target: T3, High affinity choline transporter 1; assay: human choline transporter blockers, potency – cell-based, 10-point CRC, membrane potential dye, dose response (AID 588401); format: functional;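 note: membrane potential dye fluorescence of choline-evoked depolarization via CHT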
# [6] = target: T4, Sentrin-specific protease 1 (Homo sapiens, UniProt Q9P0U3); assay: Dose response confirmation of small molecule inhibitors of the catalytic domain of the SUMO protease, SENP1 in a FRET assay.; format: functional; conditions: read-out: IC50_Mean
# T4 sequence (Q9P0U3 whole entry): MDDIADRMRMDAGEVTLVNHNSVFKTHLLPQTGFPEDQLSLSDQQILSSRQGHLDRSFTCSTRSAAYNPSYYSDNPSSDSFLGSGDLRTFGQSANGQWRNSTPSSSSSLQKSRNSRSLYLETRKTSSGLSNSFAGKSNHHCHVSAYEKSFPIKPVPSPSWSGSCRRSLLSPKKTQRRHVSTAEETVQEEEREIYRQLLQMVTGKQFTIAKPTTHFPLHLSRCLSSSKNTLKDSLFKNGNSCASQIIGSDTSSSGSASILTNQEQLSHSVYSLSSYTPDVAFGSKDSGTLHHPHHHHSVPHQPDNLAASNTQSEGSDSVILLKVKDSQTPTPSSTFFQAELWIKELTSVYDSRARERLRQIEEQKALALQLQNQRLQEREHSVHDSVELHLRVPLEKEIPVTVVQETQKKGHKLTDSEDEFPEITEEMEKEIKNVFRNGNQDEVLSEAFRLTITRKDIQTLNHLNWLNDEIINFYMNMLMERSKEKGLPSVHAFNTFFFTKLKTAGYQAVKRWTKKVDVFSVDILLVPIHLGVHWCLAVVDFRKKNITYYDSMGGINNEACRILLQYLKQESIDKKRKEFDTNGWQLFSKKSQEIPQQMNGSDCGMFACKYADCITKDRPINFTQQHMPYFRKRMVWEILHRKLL
# Cytochrome P450 2C9 = Cytochrome P450 2C9 (Homo sapiens, UniProt P11712)
# Sequence of Cytochrome P450 2C9 (P11712 whole entry): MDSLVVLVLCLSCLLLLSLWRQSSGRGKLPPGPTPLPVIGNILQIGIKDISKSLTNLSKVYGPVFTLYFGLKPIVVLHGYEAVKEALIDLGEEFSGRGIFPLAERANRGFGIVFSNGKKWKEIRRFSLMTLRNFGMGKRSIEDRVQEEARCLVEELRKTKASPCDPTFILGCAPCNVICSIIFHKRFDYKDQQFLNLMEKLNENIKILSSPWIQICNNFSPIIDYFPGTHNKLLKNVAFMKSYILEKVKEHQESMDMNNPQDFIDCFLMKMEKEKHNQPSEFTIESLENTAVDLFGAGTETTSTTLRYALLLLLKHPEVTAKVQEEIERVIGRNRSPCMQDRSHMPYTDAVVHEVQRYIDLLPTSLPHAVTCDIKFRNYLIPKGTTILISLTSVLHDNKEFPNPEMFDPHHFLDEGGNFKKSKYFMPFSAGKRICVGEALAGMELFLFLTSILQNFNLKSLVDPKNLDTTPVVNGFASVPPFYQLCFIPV
# [7] = target: Nuclear receptor subfamily 5 group A member 2 (Homo sapiens, UniProt O00482); format: functional, cell-based;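 note: HEK293T cells transfected with LRH-1 and a StAR promoter luciferase reporter; potency for inhibitors that lower LRH-1 driven reporter light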
# Sequence of Nuclear receptor subfamily 5 group A member 2 (O00482 whole entry): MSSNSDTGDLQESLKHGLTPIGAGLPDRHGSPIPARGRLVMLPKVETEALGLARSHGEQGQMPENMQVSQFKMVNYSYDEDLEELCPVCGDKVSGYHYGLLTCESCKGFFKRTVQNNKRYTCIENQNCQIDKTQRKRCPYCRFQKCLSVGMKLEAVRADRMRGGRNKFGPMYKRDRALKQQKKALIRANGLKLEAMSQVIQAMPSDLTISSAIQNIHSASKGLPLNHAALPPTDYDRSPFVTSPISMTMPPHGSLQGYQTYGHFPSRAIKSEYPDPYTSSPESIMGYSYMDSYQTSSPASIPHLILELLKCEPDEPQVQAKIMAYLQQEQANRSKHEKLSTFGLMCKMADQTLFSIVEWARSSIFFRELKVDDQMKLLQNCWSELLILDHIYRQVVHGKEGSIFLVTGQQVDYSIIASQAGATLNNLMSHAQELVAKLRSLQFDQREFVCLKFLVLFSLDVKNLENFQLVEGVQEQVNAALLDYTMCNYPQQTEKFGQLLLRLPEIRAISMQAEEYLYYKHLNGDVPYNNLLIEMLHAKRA
# Steroidogenic factor 1 = Steroidogenic factor 1 (Homo sapiens, UniProt Q13285); assay: Counterscreen for inverse agonists of the liver receptor homolog-1 (LRH-1; NR5A2): Luminescence-based cell-based high throughput dose response assay to identify inverse agonists of the Steroidogenic Factor 1 Nuclear Receptor (SF1; NR5A1).; format: functional
# Sequence of Steroidogenic factor 1 (Q13285 whole entry): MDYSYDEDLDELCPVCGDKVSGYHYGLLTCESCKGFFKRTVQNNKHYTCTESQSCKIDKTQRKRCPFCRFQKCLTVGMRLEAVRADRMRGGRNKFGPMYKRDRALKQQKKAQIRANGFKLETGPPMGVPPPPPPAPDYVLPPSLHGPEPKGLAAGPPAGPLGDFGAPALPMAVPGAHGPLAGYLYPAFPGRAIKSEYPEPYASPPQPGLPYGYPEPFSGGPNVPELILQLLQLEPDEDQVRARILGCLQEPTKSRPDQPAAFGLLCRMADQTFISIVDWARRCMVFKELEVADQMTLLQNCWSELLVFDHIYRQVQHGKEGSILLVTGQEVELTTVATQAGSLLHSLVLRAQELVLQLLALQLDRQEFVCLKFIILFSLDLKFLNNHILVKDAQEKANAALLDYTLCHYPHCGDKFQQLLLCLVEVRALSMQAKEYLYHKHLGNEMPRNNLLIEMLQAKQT
# [8] = nonselective StAR promoter luciferase inhibitors – cell-based, luminescence, luciferase reporter, counter-screen for LRH-1 inverse agonist project, dose response (AID 651969); format: functional
# [9] = Luminescence Cell-Based Dose Retest to Confirm Inhibitors of Cancer Stem Cells. [Related pubchem assays (depositor defined):AID2717, AID2721]; format: functional; conditions: Homo sapiens
# [10] = target: T5, Ubiquitin-conjugating enzyme E2 N (Homo sapiens, UniProt P61088); format: functional;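 note: Dose-response confirmation in a TR-FRET assay detecting UBC13-driven polyubiquitin chain formation, inhibition measured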
# T5 sequence (P61088 whole entry): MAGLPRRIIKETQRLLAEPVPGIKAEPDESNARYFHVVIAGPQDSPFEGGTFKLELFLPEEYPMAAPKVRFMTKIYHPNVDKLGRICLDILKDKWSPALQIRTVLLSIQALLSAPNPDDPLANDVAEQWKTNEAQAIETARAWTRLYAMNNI
# CAAX prenyl protease 2 = target: T6, CAAX prenyl protease 2 (Saccharomyces cerevisiae S288c, UniProt Q03530); format: biochemical
# T6 sequence (Q03530 whole entry): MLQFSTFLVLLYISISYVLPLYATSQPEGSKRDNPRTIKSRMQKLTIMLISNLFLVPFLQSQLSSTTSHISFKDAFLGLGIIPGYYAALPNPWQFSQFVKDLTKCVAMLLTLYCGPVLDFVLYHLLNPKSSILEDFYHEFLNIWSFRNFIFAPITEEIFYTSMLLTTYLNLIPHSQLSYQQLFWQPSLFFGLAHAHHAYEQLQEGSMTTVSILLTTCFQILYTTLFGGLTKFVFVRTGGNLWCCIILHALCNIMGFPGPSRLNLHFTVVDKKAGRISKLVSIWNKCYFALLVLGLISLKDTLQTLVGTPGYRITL
# [11] = viability of uninfected HEp-2 cells – cell-based, HTS, cytotoxicity control for RSV inhibitor project, dose response (AID 2410); format: functional; conditions: human respiratory syncytial virus
# [12] = viability of PTEN-deleted HCT116 cells – cell-based, HCT116 PTEN knockout, dose response (AID 1047); format: functional;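 note: HCT116 colon tumor cells with PTEN knocked out; cells exposed to compound for 60 hours before readout; potency for loss of cell viability measured by luminescence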
# Galanin receptor type 3 = target: T7, Galanin receptor type 3 (Homo sapiens, UniProt O60755); assay: Fluorescence-based cell-based primary high throughput dose response assay to identify antagonists of the Galanin Receptor 3 (GalR3).; format: functional
# T7 sequence (O60755 whole entry): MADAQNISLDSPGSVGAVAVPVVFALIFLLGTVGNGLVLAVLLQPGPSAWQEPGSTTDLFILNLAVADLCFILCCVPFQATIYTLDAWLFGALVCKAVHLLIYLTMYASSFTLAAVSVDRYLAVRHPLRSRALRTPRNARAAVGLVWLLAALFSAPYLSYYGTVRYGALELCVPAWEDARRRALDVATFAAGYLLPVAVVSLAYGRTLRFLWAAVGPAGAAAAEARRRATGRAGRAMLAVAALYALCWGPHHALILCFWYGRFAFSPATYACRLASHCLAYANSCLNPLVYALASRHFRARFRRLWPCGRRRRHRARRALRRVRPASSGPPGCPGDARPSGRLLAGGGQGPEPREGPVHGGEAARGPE
# cells [13] = format: functional, cell-based; conditions: HEK-CNG
# [14] = reduction of Shn3 3'UTR-driven luciferase in osteoblasts – cell-based, Clone20 osteoblasts, firefly luciferase, cherry-picked, dose response (AID 624132); format: functional;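 note: firefly luciferase luminescence from reporter carrying the Shn3 3'UTR in osteoblasts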
# [15] = loss of viability in HepG2 cells – cell-based, CellTiter-Glo, cherry-picked, cytotoxicity control for Shn3 inhibitor project, dose response (AID 624134); format: functional
# [16] = non-specific 3'UTR reporter inhibition in Clone20-Shn3RL – cell-based, Renilla luciferase, cherry-picked, counter-screen for Shn3 inhibitor project, dose response (AID 624133); format: functional
# [17] = target: Photoreceptor-specific nuclear receptor (Homo sapiens, UniProt Q9Y5X4); format: functional, cell-based;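 note: CHO-S cells with Gal4-NCOR and VP16-NR2E3 two-hybrid luciferase reporter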
# Sequence of Photoreceptor-specific nuclear receptor (Q9Y5X4 whole entry, the tested form may be a part): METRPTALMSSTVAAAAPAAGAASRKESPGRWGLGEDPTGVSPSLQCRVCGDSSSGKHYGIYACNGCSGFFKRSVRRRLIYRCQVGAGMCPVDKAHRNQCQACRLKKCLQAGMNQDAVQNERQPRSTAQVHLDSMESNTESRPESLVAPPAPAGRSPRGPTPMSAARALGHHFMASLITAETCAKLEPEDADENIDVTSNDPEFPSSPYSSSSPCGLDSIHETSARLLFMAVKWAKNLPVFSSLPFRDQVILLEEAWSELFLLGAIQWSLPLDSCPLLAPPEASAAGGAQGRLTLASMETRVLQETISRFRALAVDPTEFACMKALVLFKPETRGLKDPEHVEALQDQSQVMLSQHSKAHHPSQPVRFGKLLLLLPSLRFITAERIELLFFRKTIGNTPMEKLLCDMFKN
# P388/ADR = assay: cells; format: functional; conditions: Mus musculus
# SN12K1 = assay: cells; format: functional; conditions: Homo sapiens
# P388 = assay: cells; format: functional; conditions: Mus musculus
smiles,measurement,setting,value
CCNC(=O)NC(=O)COC(=O)c1ccccc1SCC(=O)NC(=O)NCC,IC50,[1],0.969 µM (active)
COc1cccc(NC(=O)[C@H](NC(=O)[C@@H]2Cc3ccccc3CN2)c2ccccc2)c1,IC50,cells [2],> 67.5 µM (inactive)
same,IC50,[3],> 67.5 µM (inactive)
O=C1CCN(CCc2ccccc2)CCN1[C@H](COc1ccccc1)c1ccccc1,AC50,Vero,21.8 µM (active)
CNC(=O)[C@H]1O[C@@H](n2cnc3c(NCc4cccc(I)c4)ncnc32)[C@H](O)[C@@H]1O [IB-MECA],IC50,[4],2.37 µM (active)
same,IC50,[5],1.83 µM (active)
O=C1NC(=S)N/C1=C/c1cccc([N+](=O)[O-])c1O,IC50,[6],37.4 µM (inactive)
same,AC50,Cytochrome P450 2C9,12.6 µM (inconclusive)
CCNc1cc(Cl)nc(SC)n1,IC50,[4],4.88 µM (active)
same,IC50,[5],1.79 µM (active)
CCOc1ccc(NC(=O)COC(=O)COc2cccc3c2OC(C)(C)C3)cc1,IC50,[7],15.5 µM (inactive)
same,IC50,Steroidogenic factor 1,2.55 µM (active)
same,IC50,[8],35.9 µM (inactive)
CCC(C)NC(=O)c1ccc2c(c1)N(Cc1ccccc1)C(=O)CS2 (centres undefined),IC50,[7],16.3 µM (inactive)
same,IC50,Steroidogenic factor 1,5.68 µM (active)
same,IC50,[8],35.9 µM (inactive)
CCCCCCC[C@@H](C/C=C/CCC(=O)N(C)C/C(=C/Cl)C/C(=C\C(=O)N1CC(OC)=CC1=O)OC)OC,AC50,[9],4.12 µM (active)
same,IC50,cells [2],> 67.5 µM (inactive)
same,IC50,[3],> 0.278 µM (active)
NC(=O)CCCn1c(C(=O)c2cc(Cl)c(N)c(Cl)c2)c2ccc(C(F)(F)F)cc2[n+]1[O-],IC50,[10],> 20 µM (inactive)
same,AC50,CAAX prenyl protease 2,3.5 µM (active)
same,IC50,[4],4.47 µM (active)
same,IC50,[5],4.22 µM (active)
O=c1oc2ccccc2cc1-c1ccccc1,IC50,[1],2.78 µM (active)
C=CCNc1nc(Nc2ccc(-c3nc4ccccc4o3)cc2)nc(N2CCOCC2)n1,CC50,[11],27.3 µM (active)
same,EC50,[12],43.5 µM (active)
same,IC50,[1],0.213 µM (active)
CC(NCC#Cc1ccccc1)C(O)c1ccccc1 (centres undefined),IC50,Galanin receptor type 3,> 29.9 µM (inactive)
same,EC50,cells [13],> 29.9 µM (inactive)
O=C1c2ccccc2/C(=C\c2ccc(Br)nc2)N1c1ccccc1,AC50,Vero,38.8 µM (active)
CCN(CC)S(=O)(=O)c1cc(NC(=O)CNc2cccc(S(=O)(=O)N3CCOCC3)c2)ccc1C,AC50,[14],2.97 µM (active)
same,AC50,[15],1.89 µM (active)
same,AC50,[16],2.17 µM (active)
same,IC50,Galanin receptor type 3,0.449 µM (active)
same,EC50,cells [13],> 29.9 µM (inactive)
COc1ccc(NC(=O)c2sc(=O)n(Cc3cccc(C(F)(F)F)c3)c2C)cc1OC,IC50,[17],13.9 µM (inactive)
CCOC(=O)CC[C@H](NC(=O)Cn1cnc2c(OCc3ccccc3)ncnc21)C(=O)OCC,AC50,Vero,36 µM (active)
CC(C)(Oc1ccc(Cl)cc1)C(=O)OCC(=O)NCCc1ccccc1,IC50,[7],5.98 µM (active)
same,IC50,Steroidogenic factor 1,6.16 µM (active)
same,IC50,[8],35.9 µM (inactive)
COc1ccc(S(=O)(=O)N2CCCCC2)cc1N=C(S)Nc1ccccc1,IC50,[17],1.22 µM (active)
COC(=O)C(C/C=C(\C)c1ccc(Cl)cc1)C(C)=O (centres undefined),GI50,P388/ADR,23.6 µM (inactive)
same,GI50,SN12K1,21.8 µM (inactive)
same,GI50,P388,20 µM (inactive)
